# According to patent US20070009537A1, “Antimicrobial activity of antibodies producing reactive oxygen species” (priority 2002, published 2007):
# Entries after “also recorded” stand apart in the source; their conditions may differ. Like-named read-outs stand apart in the source and are kept apart here.
# How the values were obtained:
# E. coli XL1-blue = assay: Bactericidal assay (CFU recovery); format: cell-based
# Experimental: (§1) In a typical experiment, a culture of E. coli (in log phase growth, OD600=0.2-0.3) was repeatedly pelleted (3×3,500 rpm) and resuspended in PBS (pH 7.4). The PBS suspended cells were then added to glass vials and cooled to 4° C. Hematoporphyrin IX (40 μM) and antibody (20 μM) were added and the vials were either placed on a light box (visible light, 2.8 mW cm^−2) or in the dark at 4° C. and incubated for 1 h. Viability was determined by recovery of colony forming units (CFUs) on agar plates. Each experiment was performed at least in duplicate.
# as §1, with “washed in PBS by pelleting” for “pelleted”, “rpm) the cells” for “rpm)”, “resuspending them” for “resuspended”
# E. coli = assay: Bactericidal assay (CFU recovery), strain not specified; format: cell-based
# Experimental: as §1
# as §1, with “washed in PBS by pelleting” for “pelleted”, “rpm) the cells” for “rpm)”, “resuspending them” for “resuspended”
# [1] = Decomposition of O3 under aqueous conditions; format: physicochemical; conditions: PBS pH 7.4, 22° C., OD 260 nm
# Experimental: The rate of decomposition of O3 under the aqueous conditions employed was measured by the following method. Ozone, produced by a passage of O2 through a Polymetrics ozonizer, was bubbled for 2 min through a phosphate buffered saline (PBS, pH 7.4) solution in a quartz cuvette (1 cm^2) at room temperature. The time-dependent change in optical density was then measured at 260 nm (ε=2,700 M^−1 cm^−1) for at least 5 half lives in a Hitachi u.v./vis spectrophotometer equipped with a thermostatted rack at 22° C. See Takeuchi et al., Anal. Chim. Acta. 230, 183 (1990). […] The sensitivity of the assay was limited by spectrophotometer accuracy to±0.1% (˜1 μM) of the OD at t=0.
# S. typhimurium = assay: Bactericidal assay (CFU recovery); format: cell-based, Salmonella typhimurium
# Experimental: In a typical experiment, a culture of S. typhimurium in log phase growth at OD600=0.2-0.3 was repeatedly pelleted (3×3,500 rpm) and resuspended in PBS (pH 7.4). The PBS suspended cells were then added to glass vials and cooled to 4° C. hematoporphyrin IX solution (40 μM) and antibody (20 μM) were added. The vials were placed either on a light box (visible light, 2.8 mW cm^−2) or in the dark at 4° C. Incubation was for 1 hour. Viability was determined by recovery of colony forming units (CFUs) on agar plates. Each experiment was performed with at least duplicate samples.
# E. coli O112a,c = format: cell-based; conditions: 40 μM, white light 2.7 mW cm^−2, 1 h, PBS pH 7.4, 4±1° C.
# Experimental: as §1
# as §1, with “washed in PBS by pelleting” for “pelleted”, “rpm) the cells” for “rpm)”, “resuspending them” for “resuspended”
# [2] = H2O2 production by UV irradiation of antibody/protein samples (Amplex Red assay); format: biochemical
# Experimental: Aliquots (10 μL) were removed at timed intervals throughout the assay. H2O2 concentration was determined by the amplex red method. Each data point is reported as the mean±SEM of at least duplicate measurements: • polyclonal (poly) immunoglobulin (Ig) G, human; O poly-IgG, horse; □ poly-IgG, sheep; ∇ monoclonal (m) IgG (WD1-6G6), murine; Δ poly-IgM, human; ⋄ mIgG (92H2), murine; ▪ β-galactosidase (β-gal); ▴ chick ovalbumin (OVA); ▾ α-lactalbumin (α-lact); ♦ bovine serum albumin (BSA).
# An aliquot (20 μl) from the protein solution was removed and added into a well of a 96-well microtiter plate (Costar) containing reaction buffer (80 μl). Working solution (100 μl/400 μM Amplex Red reagent 1/2 units/ml horseradish peroxidase) was then added, and the plate was incubated in the dark for 30 min. The fluorescence of the well components was then measured using a CytoFluor Multiwell Plate Reader (Series 4000, PerSeptive Biosystems, Framingham, Mass.; Ex/Em: 530/580 nm). The hydrogen peroxide concentration was determined using a standard curve. All experiments were run in duplicate, and the rate is quoted as the mean of at least two measurements.
# The resultant solution was transferred to a glass, screw-cap vial and irradiated with UV light for 30 min. The concentration of H2O2 was determined after 30 min.
molecule,measurement,setting,value
catalase,protection against the bactericidal activity of non-specific antibodies,"E. coli XL1-blue; FIG. 17A, catalase 13 mU/mL",complete protection
same,effect on bactericidal activity of non-specific antibodies,"E. coli; catalase 13 mU/mL, 11 non-specific murine monoclonal antibodies",completely attenuated
"O=[O+][O-] [Clone O3, ozone]",half-life (t½),[1],66 s
same,half-life (t½),[1]; listed as ozone,6 s
bovine serum albumin: non-specific protein control,bacterial killing,S. typhimurium; 20 μM,no bacterial killing
same,bacterial killing,E. coli; 20 μM,no bacterial killing
CC1=C(CCC(=O)O)c2cc3[nH]c(cc4nc(cc5[nH]c(cc1n2)c(C)c5C(C)O)C(C)=C4C(C)O)c(C)c3CCC(=O)O (centres unmarked) [hematoporphyrin IX],bactericidal activity of sensitizer alone,"E. coli XL1-blue; 40 μM, white light 2.7 mW cm^−2, 1 h, PBS pH 7.4, 4±1° C.",negligible bactericidal activity
same,bactericidal activity of sensitizer alone,"E. coli O112a,c",negligible bactericidal activity
"superoxide dismutase: enzyme from Sigma, non-immunoglobulin control protein","ability to reduce 1O2 (produce reactive oxygen species from singlet oxygen), panel of other proteins",[2],do not reduce ^1O2; also recorded: does not reside
same,rate of hydrogen peroxide generation,[2]; superoxide dismutase irradiated in PBS,the same as irradiation of PBS alone
β-galactosidase: most efficient non-immunoglobulin protein at generating H2O2,H2O2 photo-production,"[2]; near-UV irradiation, from its 39 Trp residues",5.9 mol eq.
chick ovalbumin: chick-egg ovalbumin,"ability to reduce 1O2 (produce reactive oxygen species from singlet oxygen), panel of other proteins",[2],one of the most efficient proteins at reducing ^1O2
O=C(O)CN(CCN(CC(=O)O)CC(=O)O)CC(=O)O [EDTA],effect on survival of bacteria in the assay system,S. typhimurium; 2 mM,no effect on the survival of bacteria
same,effect on survival of bacteria in the assay system,E. coli; 2 mM,no effect on the survival of bacteria
N[C@@H](Cc1c[nH]c2ccccc12)C(=O)O [tryptophan],H2O2 production during photo-oxidation,"[2]; near-UV irradiation, tryptophan 20 μM",ca. 0.5 mole equivalents
"RNase A: ribonuclease, non-immunoglobulin control protein (protein, UniProt P61823 27-150, looked up) Ribonuclease pancreatic: KETAAAKFERQHMDSSTSAASSSNYCNQMMKSRNLTKDRCKPVNTFVHESLADVQAVCSQKNVACKNGQTNCYQSYSTMSITDCRETGSSKYPNCAYKTTQANKHIIVACEGNPYVPVHFDASV","ability to reduce 1O2 (produce reactive oxygen species from singlet oxygen), panel of other proteins",[2],do not reduce ^1O2
same,"ability to reduce 1O2 (produce reactive oxygen species from singlet oxygen), panel of other proteins",[2]; listed as RNaseA,does not reside
